# According to US20140357512A1, “HISTONE DEACETYLASE (HDAC) BIOMARKERS IN MULTIPLE MYELOMA” (priority 2013, published 2014):
# Test system: human myeloma cell line MM.1S
# Assay: SILAC acetylated-lysine peptide profiling, HDAC inhibitor vs DMSO (light/heavy ratio)
# Format: cell-based
# Description: An embodiment of the invention comprises utilizing the SILAC method in order to quantitate changes in protein expression between two or more populations of cells. The SILAC method is a technique based on mass spectrometry that detects differences in protein abundance among samples using non-radioactive isotopic labeling. The SILAC method is known in the art, and described in detail in Ong et al., “Stable Isotope Labeling by Amino Acids in Cell Culture, SILAC, as a Simple and Accurate Approach to Expression Proteomics”, Molecular & Cellular Proteomics, vol. 1, pp. 376-386 (2002), which is incorporated herein by reference in its entirety.
# Briefly, the SILAC method involves growing two populations of cells in cell culture. The first population of cells is grown in growth media containing normal amino acids (“normal media”). The second population of cells is grown in media lacking a standard essential amino acid (such as lysine), but is then supplemented with a non-radioactive, isotopically labeled form of that essential amino acid (such as lysine labeled with ^13C atoms, rather than normal ^12C atoms), which is called “heavy media”. When the two populations of cells are each growing in the medium, they incorporate the amino acids into all of their proteins. The growth of cells maintained in the heavy media is no different from that in normal media. All peptides containing the heavy amino acids are heavier than their normal counterparts. The cells from each of the two populations of cells are lysed. The lysates from each of the two cell populations are then combined. The combined cell lysates are then analyzed by mass spectrometry. Pairs of chemically identical peptides of different stable isotope composition can be differentiated in a mass spectrometer due to their difference in mass. The ratio of peak intensities in the mass spectrum for such peptide pairs reflects the abundance ratio for the two proteins.
# This example describes SILAC studies that were performed to compare the effects of three different HDAC inhibitors (Compound A, Compound B, and tubastatin A) to a control on a human multiple myeloma cell line. The HDAC inhibitors were also compared amongst themselves to determine differences in their effects.
# A human myeloma cell line MM.1S was grown using either ^12C (light) or ^13C (heavy) lysine containing culture medium. The “heavy” cells were treated with DMSO as the control, and the “light” cells were treated with a single HDAC inhibitor at 37° C. for 6 hours. The heavy and light cells were lysed, and the lysates were mixed in 1:1 ratio and digested with the protease trypsin. The acetylated lysine containing peptides (due to the action of the HDAC inhibitor) in the digested peptide pool were captured by a non-specific anti-acetylated lysine antibody cocktail (the antibodies identify both light and heavy acetylated peptides), and subjected to mass spectrometry analysis in order to identify thousands of individual peptides.
# Thousands of peptides were identified in pairs (^12C and ^13C) due to their known mass differences. The amino acid sequence and quantitative ratio (Light/Heavy) of a given peptide in two differentially treated cell lysates were then determined and annotated with their possible protein (gene) sources.
# As stated above, three HDAC inhibitors (Compound A, Compound B, and Tubastatin A) were used. Thus, the SILAC method was performed three times, with a different HDAC inhibitor compared to a control each time. Accordingly, there are three pairs of quantitative data in the table below, i.e., Compound A:DMSO, Compound B:DMSO, and Tubastatin A:DMSO. A cut-off of 1.30 fold of change (increase or decrease) was then used to determine “changed” or “+” in the table, and any peptides with a fold of change less than 1.3 fold were determined to be “unchanged” or “0” in the table. Those peptides that were not identified were marked as “NA” in the table. […]
smiles,measurement,setting,value
CN1CCc2c(c3ccccc3n2Cc2ccc(C(=O)NO)cc2)C1 [Tub A],light to heavy ratio (L/H ratio) of acetylated peptide YFDEK(ac)IAK (SEQ ID NO: 563),"D-beta-hydroxybutyrate dehydrogenase mitochondrial [280], gene BDH1, inhibitor:DMSO",0.00 log 2
same,"light to heavy ratio (L/H ratio) of acetylated peptide, log 2 scale","DAAGSGDK(ac)PGADTGR (SEQ ID NO: 185), 39S ribosomal protein L53 mitochondrial [105], MRPL53",0.38
same,"light to heavy ratio (L/H ratio) of acetylated peptide, log 2 scale","DAISGIGTDEK(ac)CLIEILASR (SEQ ID NO: 128), Annexin A6 [113], ANXA6",0.67
same,L/H ratio of acetylated peptide FK(ac)DPNCVGTVLASR (SEQ ID NO: 30),"DAZAP1 [59], log 2 scale, drug vs DMSO",−0.51
same,"light to heavy ratio (L/H ratio) of acetylated peptide, log 2 scale","DCDHADEQK(ac)CYSCGEFGHIQK (SEQ ID NO: 145), Isoform 1 of Cellular nucleic acid-binding protein [118], CNBP",−0.38
same,L/H ratio of acetylated peptide APTIVGK(ac)SSLNPILFR (SEQ ID NO: 31),"DDOST [189], log 2 scale, drug vs DMSO",−0.51
same,L/H ratio of acetylated peptide FGNPGEK(ac)LVK (SEQ ID NO: 34),"DDX5 [40], log 2 scale, drug vs DMSO",0.45
same,L/H ratio of acetylated peptide DWVLNEFK(ac)HGK (SEQ ID NO: 33),"DDX5 [388], log 2 scale, drug vs DMSO",−0.41
same,L/H ratio of acetylated peptide FEK(ac)NFYVEHPEVAR (SEQ ID NO: 32),"DDX17 [132], log 2 scale, drug vs DMSO",−0.42
same,"light to heavy ratio (L/H ratio) of acetylated peptide, log 2 scale","DELGDYLK(ac)PK (SEQ ID NO: 184), 39S ribosomal protein L46 mitochondrial [265], MRPL46",−0.96
same,L/H ratio of acetylated peptide,"DHPLPEVAHVK(ac)HLSASQK (SEQ ID NO: 381), Cytochrome c oxidase subunit 4 isoform 1 mitochondrial [53], COX4I1",0.00 log 2
same,"light to heavy ratio (L/H ratio) of acetylated peptide, log 2 scale","DK(ac)TQYIFNNMVLK (SEQ ID NO: 182), Alpha-mannosidase 2 [191], MAN2A1",−0.45
same,L/H ratio of acetylated peptide ELNK(ac)ILEGR (SEQ ID NO: 2),"DLAT [466], log 2 scale, drug vs DMSO",0.45
same,"light to heavy ratio (L/H ratio) of acetylated peptide, log 2 scale","DLEK(ac)WQNNLLPSR (SEQ ID NO: 211), 40S ribosomal protein 515a [88], RPS15A",−0.46
same,"light to heavy ratio (L/H ratio) of acetylated peptide, log 2 scale","DLMTDLK(ac)SEISGDLAR (SEQ ID NO: 129), Annexin A6 [418], ANXA6",0.42
same,L/H ratio of acetylated peptide VVK(ac)HPIFER (SEQ ID NO: 35),"DNAJB11 [247], log 2 scale, drug vs DMSO",−0.91
same,"light to heavy ratio (L/H ratio) of acetylated peptide, log 2 scale","DSGNK(ac)PPGLLPR (SEQ ID NO: 160), Isoform 1 of Glutathione S-transferase kappa 1 [54], GSTK1",0.47
same,"light to heavy ratio (L/H ratio) of acetylated peptide, log 2 scale","DVK(ac)FGADAR (SEQ ID NO: 173), 60 kDa heat shock protein mitochondrial [31], HSPD1",−0.66
same,L/H ratio of acetylated peptide SFDSEFK(ac)LACK (SEQ ID NO: 8),"DYNC1H1 [4283], log 2 scale, drug vs DMSO",0.44
same,light to heavy ratio (L/H ratio) of acetylated peptide LNLDK(ac)MMEQK (SEQ ID NO: 603),"Dihydrolipoyl dehydrogenase mitochondrial [122], gene DLD, inhibitor:DMSO",0.00 log 2
same,light to heavy ratio (L/H ratio) of acetylated peptide DTYIENEK(ac)LISGK (SEQ ID NO: 352),"Dolichyl-diphosphooligosaccharide--protein glycosyltransferase subunit 1 precursor [626], RPN1, drug:DMSO",0.00 log 2
same,light to heavy ratio (L/H ratio) of acetylated peptide YNIEK(ac)DIAAHIK (SEQ ID NO: 553),"Dynein light chain 1 cytoplasmic [36], gene DYNLL1, inhibitor:DMSO",0.00 log 2
same,light to heavy ratio (L/H ratio) of acetylated peptide YNIEK(ac)DIAAYIK (SEQ ID NO: 331),"Dynein light chain 2 cytoplasmic [36], DYNLL2, drug:DMSO",0.00 log 2
same,"light to heavy ratio (L/H ratio) of acetylated peptide, log 2 scale","EAALEPSMEK(ac)IFK (SEQ ID NO: 157), cDNA FLJ59630 highly similar to Growth hormone-inducible transmembrane protein [76], GHITM",−0.68
same,"light to heavy ratio (L/H ratio) of acetylated peptide, log 2 scale","EDQK(ac)PVMDDQR (SEQ ID NO: 141), Isoform 1 of HLA class I histocompatibility antigen gamma chain [14], CD74",−0.79
same,L/H ratio of acetylated peptide TSK(ac)NK(ac)SSLSR (SEQ ID NO: 14),"EP300 [1558:1560], log 2 scale, drug vs DMSO",0.42
same,"light to heavy ratio (L/H ratio) of acetylated peptide, log 2 scale","EQEHMINWVEK(ac)HVVQSISTQQEK (SEQ ID NO: 132), ATP synthase subunit b mitochondrial [221], ATP5F1",0.77
same,"light to heavy ratio (L/H ratio) of acetylated peptide, log 2 scale","EVHK(ac)QVVESAYEVIK (SEQ ID NO: 181), Isoform 1 of L-lactate dehydrogenase A chain [232], LDHA",−0.67
same,"light to heavy ratio (L/H ratio) of acetylated peptide, log 2 scale","EVQTNDLK(ac)EVVNK (SEQ ID NO: 223), 40S ribosomal protein S3a [182], SNORD73A, RPS3A",−0.60
same,light to heavy ratio (L/H ratio) of acetylated peptide TFK(ac)GVVDVVMK (SEQ ID NO: 550),"Elongation factor G 2 mitochondrial precursor [265], gene GFM2, inhibitor:DMSO",0.00 log 2
same,light to heavy ratio (L/H ratio) of acetylated peptide KSDYIK(ac)LYVR (SEQ ID NO: 315),"Endoplasmin [410], HSP90B1, drug:DMSO",−0.70 log 2
same,light to heavy ratio (L/H ratio) of acetylated peptide EK(ac)NLLHVTDTGVGMTR (SEQ ID NO: 314),"Endoplasmin[ 142], HSP90B1, drug:DMSO",−0.84 log 2
same,light to heavy ratio (L/H ratio) of acetylated peptide EVEEDEYK(ac)AFYK (SEQ ID NO: 261),"Endoplasmin[ 356], HSP90B1, drug:DMSO",−0.89 log 2
same,light to heavy ratio (L/H ratio) of acetylated peptide K(ac)EELTLEGIR (SEQ ID NO: 510),"Eukaryotic initiation factor 4A-I [238], gene EIF4A1, inhibitor:DMSO",0.00 log 2
same,light to heavy ratio (L/H ratio) of acetylated peptide SHLAK(ac)EGLYQYK (SEQ ID NO: 533),"Eukaryotic translation initiation factor 3 subunit A [68], gene EIF3A, inhibitor:DMSO",0.00 log 2
same,"light to heavy ratio (L/H ratio) of acetylated peptide, log 2 scale","FEK(ac)EQQQLNWK (SEQ ID NO: 179), Isoform Long of Integrin beta-7 [763], ITGB7",−0.47
same,"light to heavy ratio (L/H ratio) of acetylated peptide, log 2 scale","FFTVK(ac)LPVALDPGAK (SEQ ID NO: 209), Dolichyl-diphosphooligosaccharide--protein glycosyltransferase subunit 1 precursor [155], RPN1",−0.39
same,L/H ratio of acetylated peptide,"FGIAAK(ac)YQLDPTASISAK (SEQ ID NO: 479), Isoform 2 of Voltage-dependent anion-selective channel protein 2 [224], VDAC2",0.00 log 2
same,"light to heavy ratio (L/H ratio) of acetylated peptide, log 2 scale","FLNAENAQK(ac)FK (SEQ ID NO: 200), Ran-specific GTPase-activating protein [150], RANBP1",−0.68
same,"light to heavy ratio (L/H ratio) of acetylated peptide, log 2 scale","FLTK(ac)GDNNAVDDR (SEQ ID NO: 218), Putative signal peptidase complex catalytic subunit SEC11B [101], SEC11B",0.82
same,"light to heavy ratio (L/H ratio) of acetylated peptide, log 2 scale","FNQK(ac)GEVYK (SEQ ID NO: 149), Lipoamide acyltransferase component of branched-chain alpha-keto acid dehydrogenase complex mitochondrial [435], DBT",0.39
same,"light to heavy ratio (L/H ratio) of acetylated peptide, log 2 scale","FWNK(ac)FLENK (SEQ ID NO: 187), NADH dehydrogenase [ubiquinone] 1 beta subcomplex subunit 6 [49], NDUFB6",0.54
same,light to heavy ratio (L/H ratio) of acetylated peptide AVDLIQK(ac)HK (SEQ ID NO: 546),"Flap endonuclease 1 [252], gene FEN1, inhibitor:DMSO",0.00 log 2
same,L/H ratio of acetylated peptide TCEESSFCK(ac)R (SEQ ID NO: 36),"GANAB [48], log 2 scale, drug vs DMSO",−0.51
